From US8367690B2, “Aminopyridine derivatives having aurora a selective inhibitory action” (Vertex Pharmaceuticals Inc., priority 2009, dated 2013)
Structures can show the parent of a compound that is named as a salt.

Legend:
[1] = biological target: T1, His-tagged human Aurora A (Homo sapiens, UniProt O14965); assay: Aurora A inhibitory activity (IMAP fluorescence polarization phosphorylation assay); type: biochemical; details: 20 μM ATP, 100 nM peptide substrate, 30° C. for 120 minutes
T1 construct: His (N); made in house; host or cells: Escherichia coli BL21-CodonPlus(DE3)-RIL
T1 sequence (O14965 1-403): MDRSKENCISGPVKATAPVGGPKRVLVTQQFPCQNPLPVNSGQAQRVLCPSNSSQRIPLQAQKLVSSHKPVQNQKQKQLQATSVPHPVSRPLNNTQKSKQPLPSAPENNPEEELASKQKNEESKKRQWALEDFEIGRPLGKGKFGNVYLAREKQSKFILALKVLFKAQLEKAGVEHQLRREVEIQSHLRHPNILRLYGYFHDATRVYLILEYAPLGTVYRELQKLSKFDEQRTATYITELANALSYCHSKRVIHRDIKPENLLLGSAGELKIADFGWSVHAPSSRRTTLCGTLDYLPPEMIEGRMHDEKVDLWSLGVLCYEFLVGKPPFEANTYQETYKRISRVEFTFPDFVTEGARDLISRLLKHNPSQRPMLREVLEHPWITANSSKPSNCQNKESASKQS
Description: cDNA of N-terminal His-tagged human Aurora A was integrated into an expression vector, which was then highly expressed in Escherichia coli BL21-CodonPlus(DE3)-RIL cells. The Escherichia coli was harvested and lysed, and then the His-tagged human Aurora A protein was applied onto a nickel chelate column and eluted from the column with imidazole. The active fractions were desalted with a desalting column to give a purified enzyme.
For measurement of the activity of Aurora A, the substrate used was a synthetic peptide (5-FAM (5-carboxyfluorescein)-γ-aminobutyric acid-Ala-Leu-Arg-Arg-Ala-Ser-Leu-Gly-NH2) (SEQ.ID.NO.:1), which was purchased from Toray Research Center, Inc.
For the phosphorylation reaction, the method by Upstate, Inc. [Kinase Profiler™ Assay Protocols] was referred to, and phosphorylation of the substrate was detected using IMAP® technology (Molecular Devices, Co. Ltd.) (Gaudet E W. et. al, J. Biomol. Screen, 8, 164-175(2003)). Concretely, the phosphorylation reaction and the detection were carried out as follows:
The phosphorylation reaction was conducted using 384 well plate, and the reaction volume was 10 μl/well. The reaction buffer is comprised of 50 mM Tris-chloride buffer (pH 7.4), 15 mM magnesium acetate, and 0.2 mM ethylenediamine-N,N,N′,N′-tetraacetic acid (EDTA). Thereto, the purified Aurora A protein, 100 nM of the peptide substrate, and 20 μM of adenosine 5′-triphosphate (ATP) were added, and then the reaction was carried out at 30° C. for 120 minutes.
Thereafter, in order to terminate and detect the reaction, 30 μl of the IMAP (registered trademark) binding reagent (IMAP Progressive Binding Reagent, R7284) that had been diluted (1:400) in the lx IMAP binding buffer A (IMAP Progressive Binding Buffer A, 5× stock, R7282) was added to each well. The solution stood still for 60 minutes in the dark, and then fluorescence polarization was measured using a high-end microplate reader (excitation wavelength: 485 nm; emission wavelength: 520 nm).
(§1) The compound to be tested was added to the reaction system such that a dilution series of the compound in dimethylsulfoxide (DMSO) was prepared, and then 0.5 μL of this solution was added for the testing to each well. Each control well was provided by adding 0.5 μL of DMSO to the well in place of the DMSO solution containing the compound to be tested.
(§2) Using the above method (in the measurement of activity of Aurora B, Method A was used), the results for measurement of the activities of Aurora A and Aurora B were obtained as shown in Table 1. […] Similar results are obtained when Method B is used in the measurement of activity of Aurora B.

[2] = biological target: T2, GST-tagged human Aurora B(AurB)/His-tagged human INCENP complex proteins (Homo sapiens, UniProt Q96GD4); assay: Aurora B inhibitory activity, Method A (IMAP assay development kit); type: biochemical; details: 40 μM ATP, 100 nM substrate, 25° C. for 45 minutes
T2 construct: GST; purchased Curia Biosciences, Inc
T2 sequence (Q96GD4 whole entry): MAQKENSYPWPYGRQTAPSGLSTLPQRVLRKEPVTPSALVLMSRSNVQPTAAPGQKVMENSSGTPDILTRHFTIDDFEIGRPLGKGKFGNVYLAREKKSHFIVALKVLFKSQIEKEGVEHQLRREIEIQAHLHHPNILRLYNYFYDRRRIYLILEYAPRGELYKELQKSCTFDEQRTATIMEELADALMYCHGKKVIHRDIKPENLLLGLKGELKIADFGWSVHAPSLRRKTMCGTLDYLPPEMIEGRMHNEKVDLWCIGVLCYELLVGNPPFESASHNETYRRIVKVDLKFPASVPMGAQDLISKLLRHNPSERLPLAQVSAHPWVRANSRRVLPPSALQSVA
T2 sequence (Q9NQS7 803-916 partner limits assumed): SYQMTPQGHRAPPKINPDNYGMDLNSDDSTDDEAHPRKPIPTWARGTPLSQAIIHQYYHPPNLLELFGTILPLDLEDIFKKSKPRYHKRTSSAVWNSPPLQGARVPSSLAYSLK
Protocol: An assay development kit for IMAP (registered trademark) (Aurora B), purchased from Curia Biosciences, Inc., was used for phosphorylation reaction, and the phosphorylation of a substrate was detected using the IMAP technology. The assay development kit used is comprised of an assay buffer, GST-tagged human Aurora B(AurB)/His-tagged human INCENP complex proteins (amino acid sequence: 803-916, AAU04398.1), and an ATP/substrate solution. Using the same, the phosphorylation reaction was conducted in accordance with a partially revised protocol attached to the kit, and then the phosphorylation of the substrate was detected using the IMAP technology.
For the phosphorylation reaction, 384 well plate was used, and the reaction volume was 10 μl/well. The composition of the reaction buffer (assay buffer) is comprised of 20 mM of HEPES buffer (pH 7.4), 0.01% Tween-20, and 2 mM of dithiothreitol (DTT). Thereto, AurB/INCENP complex protein, 100 nM of the substrate, and 40 μM of ATP, and 1 mM of magnesium salt were added, and then the reaction was conducted at 25° C. for 45 minutes. Thereafter, in order to terminate and detect the reaction, 30 μl of the IMAP (registered trademark) binding reagent (IMAP Progressive Binding Reagent, R7284) that had been diluted (1:400) in the lx IMAP binding buffer A (IMAP Progressive Binding Buffer A, 5× stock, R7282) was added to each well. The solution stood still for 60 minutes in the dark, and then fluorescence polarization was measured using a high-end microplate reader (excitation wavelength: 485 nm; emission wavelength: 520 nm).
as §1, with “DMSO” for “dimethylsulfoxide (DMSO)”
as §2

Question: Which IC50 [1] does the source give for `Cc1cc(Nc2cc(C3CC3)[nH]n2)nc(N2C[C@H](C(=O)O)C[C@H](C3CCCCC3)C2)n1` (stereo in doubt) [Example 21, (3R*,5R*)-5-cyclohexyl-1-{4-[(3-cyclopropyl-1H-pyrazol-5-yl)amino]-6-methylpyrimidin-2-yl}piperidine-3-carboxylic acid trifluoroacetate] here?
Answer: 0.81 nM

Question: What about the IC50 [2] of the same molecule?
Answer: 275 nM

Question: What does the source list for `Cc1cc(Nc2cc(C3CC3)[nH]n2)nc(N2C[C@@H](C(=O)O)C[C@@H](C3CCCCC3)C2)n1` (stereo in doubt) [Example 20, (3S*,5S*)-5-cyclohexyl-1-{4-[(3-cyclopropyl-1H-pyrazol-5-yl)amino]-6-methylpyrimidin-2-yl}piperidine-3-carboxylic acid trifluoroacetate]?
Answer: IC50 [1]: 2.4 nM; IC50 [2]: 1150 nM

Question: How did the IC50 [1] turn out when `Cc1cc(Nc2cc[nH]n2)nc(N2C[C@H](C(=O)O)C[C@H](C3CCCCC3)C2)n1` (relative stereo) [Example 13, cis-5-cyclohexyl-1-[4-methyl-6-(1H-pyrazol-5-ylamino)pyrimidin-2-yl]piperidine-3-carboxylic acid trifluoroacetate] was run?
Answer: 1.1 nM

Question: And the IC50 [2]?
Answer: 6620 nM

Question: How did the IC50 [1] turn out when `Cc1cc(Nc2cc[nH]n2)nc(N2C[C@H](NC(=O)OC(C)(C)C)C[C@@H](C(=O)O)C2)n1` (relative stereo) [Example 6, trans-5-[(tert-butoxycarbonyl)amino]-1-[4-methyl-6-(1H-pyrazol-5-ylamino)pyrimidin-2-yl]piperidine-3-carboxylic acid] was run?
Answer: 55 nM

Question: What about the IC50 [2] of the same molecule?
Answer: > 10000 nM

Question: With `Cc1cc(Nc2cc[nH]n2)nc(N2C[C@@H](NC(=O)OC(C)(C)C)C[C@@H](C(=O)O)C2)n1` (relative stereo) [Example 8, cis-5-[(tert-butoxycarbonyl)amino]-1-[4-methyl-6-(1H-pyrazol-5-ylamino)pyrimidin-2-yl]piperidine-3-carboxylic acid] as the molecule, how does the IC50 [1] read?
Answer: 9.1 nM

Question: And the IC50 [2]?
Answer: 7390 nM

Question: Which results are given for `Cc1cc(Nc2cc(C3CC3)[nH]n2)nc(N2C[C@@H](CC(=O)O)C[C@@H](C3CCCCC3)C2)n1` (stereo in doubt) [Example 24, [(3R*,5S*)-5-cyclohexyl-1-{4-[(3-cyclopropyl-1H-pyrazol-5-yl)amino]-6-methylpyrimidin-2-yl}piperidin-3-yl]acetic acid]?
Answer: IC50 [1]: < 0.3 nM; IC50 [2]: 350 nM

Question: For `Cc1cc(Nc2cc(C3CC3)[nH]n2)nc(N2C[C@H](CC(=O)O)C[C@H](C3CCCCC3)C2)n1` (stereo in doubt) [Example 23, [(3S*,5R*)-5-cyclohexyl-1-{4-[(3-cyclopropyl-1H-pyrazol-5-yl)amino]-6-methylpyrimidin-2-yl}piperidin-3-yl]acetic acid], which IC50 [1] is on record?
Answer: 4 nM

Question: And the IC50 [2]?
Answer: 2680 nM

Question: Which IC50 [1] does the source give for `Cc1cc(Nc2cc[nH]n2)nc(N2C[C@H](C(=O)O)C[C@H](c3ccccc3)C2)n1` (relative stereo) [Example 10, cis-1-[4-methyl-6-(1H-pyrazol-5-ylamino)pyrimidin-2-yl]-5-phenylpiperidine-3-carboxylic acid trifluoroacetate] here?
Answer: 7.8 nM

Question: What about the IC50 [2] of the same molecule?
Answer: 7910 nM
